Test results published in PubChem BioAssay (NCI).
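48-hour exposure; five concentrations; linearly interpolated endpoints. GI50: concentration for 50% inhibition of growth. At the TGI there is no net growth.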

Columns and labels:
Experiment in all cases: NCI-60 cell line screen, 48 h
786-0 renal = system: 786-0 renal
A498 renal = system: A498 renal
A549 NSCLC = system: A549 NSCLC
ACHN renal = system: ACHN renal
BT-549 breast = system: BT-549 breast
CAKI-1 renal = system: CAKI-1 renal
CCRF-CEM leukemia = system: CCRF-CEM leukemia
COLO 205 colon = system: COLO 205 colon
DU-145 prostate = system: DU-145 prostate
HCC-2998 colon = system: HCC-2998 colon
HCT-116 colon = system: HCT-116 colon
HCT-15 colon = system: HCT-15 colon
HL-60(TB) leukemia = system: HL-60(TB) leukemia
HOP-62 NSCLC = system: HOP-62 NSCLC
HOP-92 NSCLC = system: HOP-92 NSCLC
HS 578T breast = system: HS 578T breast
HT29 colon = system: HT29 colon
IGROV1 ovarian = system: IGROV1 ovarian
K-562 leukemia = system: K-562 leukemia
KM12 colon = system: KM12 colon
LOX IMVI melanoma = system: LOX IMVI melanoma
M14 melanoma = system: M14 melanoma
MALME-3M melanoma = system: MALME-3M melanoma
MCF7 breast = system: MCF7 breast
MDA-MB-231 breast = system: MDA-MB-231 breast
MDA-MB-435 = system: MDA-MB-435
MOLT-4 leukemia = system: MOLT-4 leukemia
NCI-H226 lung = system: NCI-H226 lung
NCI-H23 lung = system: NCI-H23 lung
NCI-H460 lung = system: NCI-H460 lung
NCI-H522 lung = system: NCI-H522 lung
NCI/ADR-RES ovarian = system: NCI/ADR-RES ovarian
OVCAR-3 ovarian = system: OVCAR-3 ovarian
OVCAR-4 ovarian = system: OVCAR-4 ovarian
OVCAR-5 ovarian = system: OVCAR-5 ovarian
OVCAR-8 ovarian = system: OVCAR-8 ovarian
PC-3 prostate = system: PC-3 prostate
RPMI-8226 leukemia = system: RPMI-8226 leukemia
RXF 393 renal = system: RXF 393 renal
SF-268 CNS = system: SF-268 CNS
SF-295 CNS = system: SF-295 CNS
SF-539 CNS = system: SF-539 CNS
SK-MEL-2 melanoma = system: SK-MEL-2 melanoma
SK-MEL-28 melanoma = system: SK-MEL-28 melanoma
SK-MEL-5 melanoma = system: SK-MEL-5 melanoma
SK-OV-3 ovarian = system: SK-OV-3 ovarian
SN12C renal = system: SN12C renal
SNB-19 CNS = system: SNB-19 CNS
SNB-75 CNS = system: SNB-75 CNS
SR leukemia = system: SR leukemia
SW-620 colon = system: SW-620 colon
T-47D breast = system: T-47D breast
TK-10 renal = system: TK-10 renal
U251 CNS = system: U251 CNS
UACC-257 melanoma = system: UACC-257 melanoma
UACC-62 melanoma = system: UACC-62 melanoma
UO-31 renal = system: UO-31 renal

Cn1cc(C2=C(c3cn(C)c4ccc(OCc5ccccc5)cc34)C(=O)NC2=O)c2ccccc21 gave a GI50 (786-0 renal) of over 25 µM, a TGI (786-0 renal) of over 25 µM and a GI50 (A498 renal) of over 25 µM. It also gave a TGI (A498 renal) of over 25 µM, a GI50 (A549 NSCLC) of over 25 µM and a TGI (A549 NSCLC) of over 25 µM. It also gave a GI50 (ACHN renal) of over 25 µM, a TGI (ACHN renal) of over 25 µM and a GI50 (BT-549 breast) of over 25 µM. The TGI (BT-549 breast) was over 25 µM, the GI50 (CAKI-1 renal) was over 25 µM and the TGI (CAKI-1 renal) was over 25 µM. For the same molecule, the GI50 (CCRF-CEM leukemia) was over 25 µM, the TGI (CCRF-CEM leukemia) was over 25 µM and the GI50 (COLO 205 colon) was over 25 µM. The TGI (COLO 205 colon) was over 25 µM, the GI50 (DU-145 prostate) was over 25 µM and the TGI (DU-145 prostate) was over 25 µM. For the same molecule, the GI50 (HCC-2998 colon) was over 25 µM, the TGI (HCC-2998 colon) was over 25 µM and the GI50 (HCT-116 colon) was over 25 µM. The TGI (HCT-116 colon) was over 25 µM, the GI50 (HCT-15 colon) was over 25 µM and the TGI (HCT-15 colon) was over 25 µM. The GI50 (HL-60(TB) leukemia) was over 25 µM, the TGI (HL-60(TB) leukemia) was over 25 µM and the GI50 (HOP-62 NSCLC) was over 25 µM. The TGI (HOP-62 NSCLC) was over 25 µM, the GI50 (HOP-92 NSCLC) was over 25 µM and the TGI (HOP-92 NSCLC) was over 25 µM. The GI50 (HS 578T breast) was over 21.2 µM, the TGI (HS 578T breast) was over 25 µM and the GI50 (HT29 colon) was over 25 µM. It also gave a TGI (HT29 colon) of over 25 µM, a GI50 (IGROV1 ovarian) of over 25 µM and a TGI (IGROV1 ovarian) of over 25 µM. For the same molecule, the GI50 (K-562 leukemia) was over 25 µM, the TGI (K-562 leukemia) was over 25 µM and the GI50 (KM12 colon) was over 25 µM. For the same molecule, the TGI (KM12 colon) was over 25 µM, the GI50 (LOX IMVI melanoma) was over 25 µM and the TGI (LOX IMVI melanoma) was over 25 µM. The GI50 (M14 melanoma) was over 25 µM, the TGI (M14 melanoma) was over 25 µM and the GI50 (MALME-3M melanoma) was over 25 µM. The TGI (MALME-3M melanoma) was over 25 µM, the GI50 (MCF7 breast) was over 25 µM and the TGI (MCF7 breast) was over 25 µM. It also gave a GI50 (MDA-MB-231 breast) of over 25 µM, a TGI (MDA-MB-231 breast) of over 25 µM and a GI50 (MDA-MB-435) of over 25 µM. The TGI (MDA-MB-435) was over 25 µM, the GI50 (MOLT-4 leukemia) was over 25 µM and the TGI (MOLT-4 leukemia) was over 25 µM. For the same molecule, the GI50 (NCI-H226 lung) was over 25 µM, the TGI (NCI-H226 lung) was over 25 µM and the GI50 (NCI-H23 lung) was over 25 µM. The TGI (NCI-H23 lung) was over 25 µM, the GI50 (NCI-H460 lung) was over 25 µM and the TGI (NCI-H460 lung) was over 25 µM. The GI50 (NCI-H522 lung) was over 25 µM, the TGI (NCI-H522 lung) was over 25 µM and the GI50 (NCI/ADR-RES ovarian) was over 25 µM. The TGI (NCI/ADR-RES ovarian) was over 25 µM, the GI50 (OVCAR-3 ovarian) was over 25 µM and the TGI (OVCAR-3 ovarian) was over 25 µM. It also gave a GI50 (OVCAR-4 ovarian) of over 16.9 µM, a TGI (OVCAR-4 ovarian) of over 25 µM and a GI50 (OVCAR-5 ovarian) of over 25 µM. For the same molecule, the TGI (OVCAR-5 ovarian) was over 25 µM, the GI50 (OVCAR-8 ovarian) was over 25 µM and the TGI (OVCAR-8 ovarian) was over 25 µM. It also gave a GI50 (PC-3 prostate) of over 25 µM, a TGI (PC-3 prostate) of over 25 µM and a GI50 (RPMI-8226 leukemia) of over 25 µM. It also gave a TGI (RPMI-8226 leukemia) of over 25 µM, a GI50 (RXF 393 renal) of over 25 µM and a TGI (RXF 393 renal) of over 25 µM. The GI50 (SF-268 CNS) was over 25 µM, the TGI (SF-268 CNS) was over 25 µM and the GI50 (SF-295 CNS) was over 25 µM. For the same molecule, the TGI (SF-295 CNS) was over 25 µM, the GI50 (SF-539 CNS) was over 25 µM and the TGI (SF-539 CNS) was over 25 µM. It also gave a GI50 (SK-MEL-2 melanoma) of over 25 µM, a TGI (SK-MEL-2 melanoma) of over 25 µM and a GI50 (SK-MEL-28 melanoma) of over 25 µM. The TGI (SK-MEL-28 melanoma) was over 25 µM, the GI50 (SK-MEL-5 melanoma) was over 25 µM and the TGI (SK-MEL-5 melanoma) was over 25 µM. It also gave a GI50 (SK-OV-3 ovarian) of over 25 µM, a TGI (SK-OV-3 ovarian) of over 25 µM and a GI50 (SN12C renal) of over 25 µM. For the same molecule, the TGI (SN12C renal) was over 25 µM, the GI50 (SNB-19 CNS) was over 25 µM and the TGI (SNB-19 CNS) was over 25 µM. It also gave a GI50 (SNB-75 CNS) of over 25 µM, a TGI (SNB-75 CNS) of over 25 µM and a GI50 (SR leukemia) of over 25 µM. The TGI (SR leukemia) was over 25 µM, the GI50 (SW-620 colon) was over 25 µM and the TGI (SW-620 colon) was over 25 µM. It also gave a GI50 (T-47D breast) of over 25 µM, a TGI (T-47D breast) of over 25 µM and a GI50 (TK-10 renal) of over 25 µM. For the same molecule, the TGI (TK-10 renal) was over 25 µM, the GI50 (U251 CNS) was over 25 µM and the TGI (U251 CNS) was over 25 µM. The GI50 (UACC-257 melanoma) was over 25 µM, the TGI (UACC-257 melanoma) was over 25 µM and the GI50 (UACC-62 melanoma) was over 25 µM. It also gave a TGI (UACC-62 melanoma) of over 25 µM, a GI50 (UO-31 renal) of over 25 µM and a TGI (UO-31 renal) of over 25 µM.
